# Measured values as given in US7625911B2, “Amorphous form of erlotinib hydrochloride and its solid amorphous dispersion” (Mai De Ltd., priority 2005, dated 2009).
# Assay: Solubility (complete dissolution) of erlotinib hydrochloride in alcohol solvents at elevated temperature
# Type: physicochemical
# Source text: In a first step of the distillation process, crystalline erlotinib hydrochloride is preferably dissolved in an […] solvent; more preferably dissolved in a straight or branched chain C1-C4 alcohol solvent, and most preferably dissolved in methanol or ethanol to form a solution. Erlotinib hydrochloride has the highest solubility in methanol or ethanol, allowing the complete dissolution of erlotinib hydrochloride at elevated temperature.
# (§1) In particular, erlotinib hydrochloride is soluble in methanol at or over 50° C., allowing the complete dissolution of erlotinib hydrochloride in methanol at 50° C. or above with a concentration of 10 mg per milliliter (ml). The use of a relatively concentrated solution, e.g. about 10 mg per ml is therefore preferred for methanol.
# as §1, with “ethanol” for “methanol”, “70°” for “50°”, “[…]” for “50° C. or above”, “ml.” for “milliliter (ml).”, “ethanol.” for “methanol.”
# In particular, erlotinib hydrochloride is soluble in methanol, ethanol or a mixture of ethanol and water solvents at 45° C.-55° C., allowing the complete dissolution of erlotinib hydrochloride in methanol or ethanol at this elevated temperature with a concentration of about 10 mg per ml. The use of a relatively concentrated solution, e.g. about 10 mg per ml or over is therefore preferred for spraying drying process.
compound,measurement,setting,value
"C#Cc1cccc(Nc2ncnc3cc(OCCOC)c(OCCOC)cc23)c1.Cl [erlotinib hydrochloride, [6,7-bis(2-methoxy-ethoxy)-quinazolin-4-yl]-(3-ethynyl-phenyl) amine hydrochloride]",concentration at complete dissolution in ethanol,"ethanol, soluble at or over 70° C. (sentence also says ambient temperature)",10 mg per ml
same,concentration at complete dissolution in methanol,"methanol, at 50° C. or above",10 mg per milliliter (ml)
same,"concentration at complete dissolution in methanol, ethanol or a mixture of ethanol and water","methanol, ethanol or ethanol/water mixture, 45° C.-55° C.",about 10 mg per ml
